This is an account of results in patent US10583143B2, “Methods and compositions for the treatment or prevention of abnormal bone formation in a soft tissue” (THE BRIGHAM AND WOMEN'S HOSPITAL, INC., priority 2015, dated 2020).

Entries after “also recorded” stand apart in the source; their conditions may differ.

The subject of data set [1] is constitutively activated ALK1-5. Briefly: Cell-based luciferase reporter assays with constitutively activated ALK1-5, potency comparison. The following applies: ALK1-5, BRE-Luc / CAGA-Luc. The source says: […]. Inhibition curves of BMP and TGF-β transcriptional activity mediated by constitutively activated ALK1-5 in a cell-based luciferase reporter assays. […]. Data shown are representative of more than 3 independent experiments, with data plotted as mean±S.E.M. (n=3 replicates)
C2C12 myofibroblast cells stably expressing firefly luciferase under the control of BMP-responsive promoter element (BRE-Luc) were generously provided by Dr. Peter ten Dijke (Leiden University Medical Center, NL). Human embryonic kidney 293T cells stably transfected with the TGF-β-responsive element fused to luciferase gene (CAGA-Luc) were a kind gift of Dr. Howard Weiner (Brigham and Women's Hospital, Boston, Mass.). C2C12 Bre-Luc and 293T CAGA-Luc cells were seeded at 20,000 cells in DMEM supplemented with 2% FBS per well in tissue culture treated 96-well plates (Costar® 3610; Corning). The cells were incubated for 1 h (37° C. and 10% CO2) and allowed to settle and attach. […]. Cells were then incubated for 30 min. […] Media was discarded and firefly luciferase activity was measured (Promega™) according to manufacturer's protocol. Light output was measured using a Spectramax™ L luminometer (Molecular Devices™) with an integration time of one second per well. […]
In general terms: Reporter assays use an easily measured gene product as a stand-in for the process of interest.

The subject of data set [2] is ACVR1^[R206H]FlEx/+] knock-in mice. Briefly: ACVR1^[R206H]FlEx/+] knock-in mouse model of FOP. Here is the method:
Mice were maintained in accordance with Institutional Animal Care and Use Committee guidelines under approved experimental protocols. […] Heterotopic bone formation in these mice was introduced via single retro-popliteal injection of adenoviral Cre-recombinase at 1×10^8 PFU at postnatal day 7 (P7). […] Bone formation as a function of a loss of passive range of motion, via dorsiflexion of the left ankle joint was assessed daily. […] On day 35 for inducible ACVR1^Q207D mice, and on day 90-120 for inducible ACVR1^R206H mice were sacrificed and imaged via X-ray radiography (MS FX In-Vivo Pro: Carestream Health). Micro-computed tomography (micro-CT) imaging was carried out on samples fixed overnight in 1% paraformaldehyde followed by scanning (μCT35, ScanCo).

The conditions of data set [3]: 60 mg to 250 mg p.o. per day; cited from earlier work.
A further data set concerns the target T1, ALK4/ACVR1B (Homo sapiens, UniProt P36896).
T1 sequence (P36896 1-505 T206D): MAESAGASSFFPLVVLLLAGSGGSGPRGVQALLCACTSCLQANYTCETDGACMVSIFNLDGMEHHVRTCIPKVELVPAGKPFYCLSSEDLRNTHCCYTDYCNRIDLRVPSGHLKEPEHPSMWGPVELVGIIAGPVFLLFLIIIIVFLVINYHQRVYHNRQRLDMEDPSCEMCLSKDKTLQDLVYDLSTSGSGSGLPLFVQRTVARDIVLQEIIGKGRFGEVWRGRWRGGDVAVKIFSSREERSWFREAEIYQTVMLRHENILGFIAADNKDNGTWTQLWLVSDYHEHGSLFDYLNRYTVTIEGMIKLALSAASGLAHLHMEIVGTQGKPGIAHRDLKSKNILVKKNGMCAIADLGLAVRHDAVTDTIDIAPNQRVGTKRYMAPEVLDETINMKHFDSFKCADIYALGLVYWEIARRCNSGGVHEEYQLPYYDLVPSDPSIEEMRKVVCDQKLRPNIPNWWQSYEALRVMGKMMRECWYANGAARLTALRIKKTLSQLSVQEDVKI
Briefly: CAGA-Luc luciferase reporter in HEK293 cells driven by constitutively active ALK4. The following applies: Ad.caALK4, read-out: IC50 inhibition of caALK4 activity (CAGA-Luc). Type of data set: cell-based. How it is done: (§1) Inhibition of BMP-mediated gene transcription was measured via the activity of a BMP-response element luciferase reporter (BRE-Luc) stably expressed in the C2C12 cell line as a measure of BMP signaling inhibition, with gene expression being driven by constitutively active (ca-) forms of BMP type I receptors ALK1, ALK2, and ALK3 (FIG. 1). This was measured in comparison to the inhibition of TGF-β or Activin signaling via CAGA-Luc reporter construct stably expressed in HEK293 cells, with gene expression being driven by constitutively active (ca-) forms of Activin/TGF=β type I receptors ALK4 or ALK5 (FIG. 1). […]. C2C12 myofibroblast cells stably expressing firefly luciferase under the control of BMP-responsive promoter element (BRE-Luc) were generously provided by Dr. Peter ten Dijke (Leiden University Medical Center, NL). Human embryonic kidney 293T cells stably transfected with the TGF-β-responsive element fused to luciferase gene (CAGA-Luc) were a kind gift of Dr. Howard Weiner (Brigham and Women's Hospital, Boston, Mass.). […] Media was discarded and firefly luciferase activity was measured (Promega™) according to manufacturer's protocol. Light output was measured using a Spectramax™ L luminometer (Molecular Devices™) with an integration time of one second per well. […]

In the next data set the target is T2, ALK5/TGFBR1 (Homo sapiens, UniProt P36897, T204D).
T2 construct: expressed in transfected cells; host or cells: 293T CAGA-Luc cells infected with Ad.caALK5 (gift of Dr. Akiko Hata)
T2 sequence (P36897 34-503 T204D): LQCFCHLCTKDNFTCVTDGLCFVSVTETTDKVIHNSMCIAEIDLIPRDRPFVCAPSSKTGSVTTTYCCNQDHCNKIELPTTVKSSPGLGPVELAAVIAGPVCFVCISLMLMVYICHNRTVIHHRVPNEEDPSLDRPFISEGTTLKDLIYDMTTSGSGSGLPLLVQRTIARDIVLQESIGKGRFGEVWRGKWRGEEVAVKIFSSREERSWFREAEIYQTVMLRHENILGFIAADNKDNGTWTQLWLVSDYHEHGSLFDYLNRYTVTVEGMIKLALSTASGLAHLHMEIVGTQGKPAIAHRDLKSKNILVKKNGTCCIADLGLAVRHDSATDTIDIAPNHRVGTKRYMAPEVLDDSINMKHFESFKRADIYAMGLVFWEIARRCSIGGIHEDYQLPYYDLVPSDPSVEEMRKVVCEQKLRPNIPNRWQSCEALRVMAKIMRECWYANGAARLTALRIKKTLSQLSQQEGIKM
Briefly: CAGA-Luc luciferase reporter in HEK293 cells driven by constitutively active ALK5. It is filed as cell-based. To be noted: Ad.caALK5, read-out: IC50 inhibition of caALK5 activity (CAGA-Luc). How it is done: as §1

Data set [4] deals with ACVR1^Q207D (CAG-Z-EGFP-caALK2) transgenic mice. Briefly: Inducible ACVR1^Q207D-Tg (CAG-Z-EGFP-caALK2) mouse model of heterotopic ossification / FOP. The following applies: for heterotopic bone lesions on x-ray: 6 mg/kg i.p. twice daily; for passive range-of-motion: 6 mg/kg intraperitoneally twice daily.
[5] abbreviates: 25 mg/kg oral gavage daily for first 28 days only, observed up to 90 days.
Setting [6] is: 25 mg/kg intraperitoneally twice daily for 28 days.

For `CN1CCN(CCOc2cc(OC3CCOCC3)c3c(Nc4c(Cl)ccc5c4OCO5)ncnc3c2)CC1` [AZD-0530, N-(5-chloro-1,3-benzodioxol-4-yl)-7-[2-(4-methylpiperazin-1-yl)ethoxy]-5-[(tetrahydro-2H-pyran-4-yl)oxy]quinazolin-4-amine], the “decreased potency against all receptors compared with LDN-193189” value in data set [1] is reported as “approximately 10 fold”. Further, the “change in weight compared to vehicle treated controls” value in data set [2] (25 mg/kg oral gavage daily for 28 days) is “No statistically significant change”. Further, the “progressive loss of range of motion” value in data set [2] (setting [5]) was “protected”. Further, the radiographic bone formation entry in data set [2] (setting [5]) was “protected”. The “tolerability in healthy human adults” value in data set [3] is reported as “good tolerability”. Besides, the IC50 on ALK4/ACVR1B and at ALK5/TGFBR1 was 220 nM in each case.

For `c1ccc2c(-c3cnn4cc(-c5ccc(N6CCNCC6)cc5)cnc34)ccnc2c1` [LDN-193189], in data set [4], the “heterotopic bone lesions on x-ray” value is “preventing heterotopic bone lesions” and the passive range-of-motion entry is reported as “effective in preserving range of motion; also recorded: mobility was almost entirely preserved”.

Turning to `c1cc(-c2cnn3cc(-c4ccc(N5CCNCC5)cc4)cnc23)c2cccnc2c1` [LDN-212854], in data set [4], the “heterotopic bone lesions on x-ray” value is on record as “preventing heterotopic bone lesions” and the passive range-of-motion entry is recorded as “effective in preserving range of motion; also recorded: mobility was almost entirely preserved”.

`COc1cc2c(Nc3ccc(Br)cc3F)ncnc2cc1OCC1CCN(C)CC1` [ZD-6474]: in data set [4] (setting [6]), the radiographic heterotopic ossification entry was “did not significantly attenuate; also recorded: no evidence of improvement” and the range-of motion entry was “no evidence of improvement”.

As usually defined, the IC50 is the concentration needed to halve the response being measured.
